Measured values as given in patent publication US8058243B2, “Method for treating a brain cancer with ifenprodil” (HSC Research and Development Limited Partnership, priority 2006, dated 2011).
Structures can show the parent of a compound that is named as a salt. Where two headings read alike, the source gives them in different places.

System: murine neural precursor cells (neurosphere cultures)
Assay: HTS of LOPAC library against secondary neurosphere cultures, MTT proliferation assay at 3 μM, day 7 (z score, P value)
Assay type: cell-based, mouse
[1] = primary LOPAC screen, 3 μM, MTT, neurosphere proliferation
[2] = yes/no: significantly inhibited neurosphere proliferation in the primary screen
[3] = LOPAC primary screen, neurosphere MTT proliferation, 3 μM, day 7
[4] = LOPAC library screen, 3 μM, MTT, neurosphere cultures
[5] = yes/no: significantly inhibited neurosphere proliferation (P<0.01) in primary screen
[6] = yes/no: significantly inhibited neurosphere proliferation (P<0.01) in the primary screen
[7] = yes = significantly inhibited neurosphere proliferation (P<0.01) in the primary screen
[8] = LOPAC library screen, 3 μM, MTT, secondary neurosphere cultures, day 7
[9] = LOPAC library screen at 3 μM, secondary neurosphere cultures, MTT

SMILES	Z Score	Z score [1]	Activity [2]	Z score [3]	other results
COC[C@H]1OC(=O)c2coc3c2[C@@]1(C)C1=C(C3=O)[C@@H]2CCC(=O)[C@@]2(C)C[C@H]1OC(C)=O [Wortmannin from Penicillium funiculosum]	0.4079	0.408	no	–	–
CC(Oc1ccc(Oc2cnc3ccc(Cl)cc3n2)cc1)C(=O)O (stereo not drawn) [XK469]	−9.355	–	–	−9.355	Activity: yes
O=C(NCCNCC(O)COc1ccc(O)cc1)N1CCOCC1 (stereo not drawn) [Xamoterol hemifumarate]	–	–	no	–	Z Score (168 h, 3 µM): −0.1243; Z score (168 h, 3 µM): −0.124
CCCn1c(=O)c2[nH]c(-c3ccc(OCC(=O)NCCN)cc3)nc2n(CCC)c1=O [Xanthine amine congener]	–	0.001	no	–	Z Score [4]: 0.001164
Cc1cccc(C)c1N=C1NCCCS1 [Xylazine hydrochloride]	0.3755	0.375	no	–	–
Cc1cc(C(C)(C)C)cc(C)c1CC1=NCCN1 [Xylometazoline hydrochloride]	0.296	0.296	no	–	–
C[C@@H](N)[C@H]1CC[C@H](C(=O)Nc2ccncc2)CC1 [Y-27632 dihydrochloride]	–	–	–	–	Z Score (168 h, 3 µM): −0.1255; Z score (168 h, 3 µM): −0.125; Activity [5]: no
OCc1ccc(-c2nn(Cc3ccccc3)c3ccccc23)o1 [YC-1]	0.4335	0.433	no	–	–
COc1ccc(CCN(C)CCc2ccc(OC)c(OC)c2)cc1OC.Cl [YS-035 hydrochloride]	0.04311	–	–	0.043	Activity [6]: no
COC(=O)[C@@H]1[C@H]2C[C@H]3c4[nH]c5ccccc5c4CCN3C[C@@H]2CC[C@@H]1O [Yohimbine hydrochloride]	–	–	no	–	Z Score (168 h, 3 µM): −1.656; Z score (168 h, 3 µM): −1.656
O=C(N[C@@H](Cc1ccccc1)C(=O)CCl)OCc1ccccc1 [Z-L-Phe chloromethyl ketone]	−2.901	–	–	−2.901	Activity [6]: yes
CC(C)N(CCC(=O)c1ccc2ccccc2c1)Cc1ccccc1 [ZM 39923 hydrochloride]	–	–	–	0.746	Z Score [4]: 0.7457; Activity [7]: no
CCCOc1ccccc1-c1nc2nn[nH]c2c(=O)[nH]1 [Zaprinast]	–	–	–	−2.506	Z Score [8]: −2.506; Activity [7]: yes
COc1cc(-c2ccc(=O)[nH]n2)ccc1OC(F)F [Zardaverine]	–	−0.341	–	–	Z Score [9]: −0.3412
CN(C)C/C=C(/c1ccc(Br)cc1)c1cccnc1 [Zimelidine dihydrochloride]	–	−0.649	no	–	Z Score [9]: −0.649
NS(=O)(=O)Cc1noc2ccccc12 [Zonisamide sodium]	–	−0.917	no	–	Z Score [9]: −0.9169

SMILES	Z Score	Z score [1]	Activity [2]	Z score [3]	other results
N=C(N)NC(CCC(=O)O)C(=O)O (stereo not drawn) [alpha-Guanidinoglutaric acid]	–	–	–	–	Z Score (168 h, 3 µM): −9.041; Z score (168 h, 3 µM): −9.041; Activity [6]: yes
CN1[C@@H](CC(=O)c2ccccc2)CCC[C@H]1C[C@H](O)c1ccccc1 [alpha-Lobeline hydrochloride]	–	–	–	0.550	Z Score [4]: 0.5499; Activity [5]: no
CC(N)Cc1c[nH]c2ccc(O)cc12.O=C(O)/C=C\C(=O)O (stereo not drawn) [alpha-Methyl-5-hydroxytryptamine maleate]	−0.7796	–	–	−0.780	Activity [7]: no
Cl.N[C@@H](CCl)C(=O)O [beta-Chloro-L-alanine hydrochloride]	−1.39	–	–	–	Z score (LOPAC screen, neurosphere MTT proliferation, 3 μM, day 7): −1.390; Activity [5]: no
C[C@]12CC[C@@H]3c4ccc(O)cc4CC[C@H]3[C@@H]1CC[C@@H]2O [beta-Estradiol]	−0.5623	–	–	−0.562	Activity [5]: no
CC1(C)CCC2=C(O1)c1ccccc1C(=O)C2=O [beta-Lapachone]	–	–	–	–	Z Score (168 h, 3 µM): −10.43; Z score (168 h, 3 µM): −10.428; Activity [7]: yes
NC/C=C\C(=O)O [cis-4-Aminocrotonic acid]	–	−1.088	no	–	Z Score [9]: −1.088
Br.CCCN1CCC[C@@H]2c3ccc(O)cc3CC[C@@H]21 [cis-(B1)-8-OH-PBZI hydrobromide]	−2.297	–	–	–	–
O=C(O)[C@@H]1C[C@H](C(=O)O)N1 [cis-Azetidine-2,4-dicarboxylic acid]	–	–	no	–	Z Score (168 h, 3 µM): −2.251; Z score (168 h, 3 µM): −2.251
C#CC(N)CCC(=O)O (stereo not drawn) [gamma-Acetylinic GABA]	1.285	1.285	no	–	–
N[C@H](CCC(=O)NCS(=O)(=O)O)C(=O)O [gamma-D-Glutamylaminomethylsulfonic acid]	–	–	–	−0.046	Z Score [4]: −0.04649; Activity [5]: no
CC(C(=O)O)c1ccc(CC2CCCC2=O)cc1 (stereo not drawn) [loxoprofen]	–	–	–	−0.883	Z Score [9]: −0.8833; Activity [5]: no
Oc1ccc2c3c1O[C@H]1c4[nH]c5c(c4C[C@@]4(O)[C@@H](C2)N(CC2CC2)CC[C@]314)C[C@@]1(O)[C@H]2Cc3ccc(O)c4c3[C@@]1(CCN2CC1CC1)[C@H]5O4 [nor-Binaltorphimine dihydrochloride]	0.3881	–	–	0.388	Activity [7]: no
Cl.Nc1cc(Cl)c(N=C2NCCN2)c(Cl)c1 [p-Aminoclonidine hydrochloride]	−0.04776	–	–	−0.048	Activity (yes/no: significantly inhibited neurosphere proliferation in primary screen): no
O=C1C=CC(=O)C=C1 [p-Benzoquinone]	–	−1.571	–	–	Activity: no; Z Score [8]: −1.571
N[C@@H](Cc1ccc(F)cc1)C(=O)O [p-Fluoro-L-phenylalanine]	–	–	–	–	Z Score (168 h, 3 µM): −0.7023; Z score (168 h, 3 µM): −0.702; Activity [5]: no
